Results reported in ChEMBL document CHEMBL3400100, “Streptococcus mutans sortase A inhibitory metabolites from the flowers of Sophora japonica” (Bioorg Med Chem Lett, 2015).

Columns and labels:
[1] = Inhibition of Streptococcus mutans OMZ65 sortase A lacking N-terminal membrane anchor domain (1 to 40 amino acids) expressed in Escherichia coli TOP10 using Dabcyl-QALPETGEE-Edans substrate incubated for 1 hr by fluorescence spectrophotometry
Streptococcus mutans [2] = assay: Toxicity against Streptococcus mutans assessed as inhibition of microbial growth; assay type: organism-based; details: in vitro
Streptococcus mutans [3] = assay: Inhibition of sortase A in Streptococcus mutans NG8 assessed as reduction in saliva-induced bacterial aggregation at 58.6 to 234.4 uM by spectrophotometry

Work on `COc1cc(-c2oc3cc(O)cc(O)c3c(=O)c2O[C@@H]2O[C@H](CO[C@@H]3O[C@@H](C)[C@H](O)[C@@H](O)[C@H]3O)[C@@H](O)[C@H](O)[C@H]2O)ccc1O` [NARCISSIN] yielded an IC50 [1] of 62.1 µM and an MIC (Streptococcus mutans [2]) of over 320.2 µM.

Para-Hydroxymercuribenzoic acid showed an IC50 [1] of 112 µM.

For `COc1cc(/C=C/C(=O)CC(=O)/C=C/c2ccc(O)c(OC)c2)ccc1O` [CURCUMIN], the IC50 [1] was 91.5 µM and the MIC (Streptococcus mutans [2]) was over 542.9 µM.

In the case of `C[C@@H]1O[C@@H](OC[C@H]2O[C@@H](Oc3c(-c4ccc(O)cc4)oc4cc(O)cc(O)c4c3=O)[C@H](O)[C@@H](O)[C@@H]2O)[C@H](O)[C@H](O)[C@H]1O` [NICOTIFLOROSIDE], the IC50 [1] is reported as 60.7 µM and the MIC (Streptococcus mutans [2]) is reported as over 336.4 µM.

With `Cc1occc(=O)c1O[C@@H]1O[C@H](COC(=O)CC(C)(O)CC(=O)O)[C@@H](OC(=O)/C=C\c2ccc(O)cc2)[C@H](O)[C@H]1O` (some centres not stated) the inhibition (Streptococcus mutans [3]) was “Dose-dependent effect”, the IC50 [1] was 58.6 µM and the MIC (Streptococcus mutans [2]) was over 345.9 µM.

`Cc1occc(=O)c1O[C@@H]1O[C@H](COC(=O)CC(C)(O)CC(=O)O)[C@@H](OC(=O)/C=C/c2ccc(O)cc2)[C@H](O)[C@H]1O` (some centres not stated) showed an IC50 [1] of 94.3 µM and an MIC (Streptococcus mutans [2]) of over 345.9 µM.
